According to patent publication US20240269301A1, “METHOD FOR INITIATING POLYMERIZATION OF AMINO ACID N-CARBOXYANHYDRIDES IN AQUEOUS PHASE” (PEKING UNIVERSITY, priority 2021, published 2024):
Structures can show the parent of a compound that is named as a salt.

Experiment: Solubility of doxorubicin in PBS (absorbance 495 nm)
Format: physicochemical
Conditions: FIG. 38
Method: Determination of doxorubicin content: 600, 300, 150, 75, 37.5, 18.75, 9.375, and 0 μg/mL DOX was formulated as a standard curve. 5 mg of doxorubicin hydrochloride was weighed and added to 1 mL of PBS. 10 mg of DOX-PLP was weighed and added to 100 μL of PBS. After dissolving by vortexing, the mixture was centrifuged at 21,000 for 10 min, and the supernatant was diluted to an appropriate multiple. The absorbance value was measured at 495 nm, and the DOX content was calculated based on the absorbance value of the standard curve.

- solubility limit: 573±22 μg/mL DOX
Structure (SMILES): COc1cccc2c1C(=O)c1c(O)c3c(c(O)c1C2=O)C[C@@](O)(C(=O)CO)C[C@@H]3O[C@H]1C[C@H](N)[C@H](O)[C@H](C)O1 [doxorubicin hydrochloride]
